target: VEGFR2, unphosphorylated (Homo sapiens (Human), UniProt P35968); assay: VEGFR ADP GLO Assay; assay type: biochemical
Sequence (P35968 20-1356): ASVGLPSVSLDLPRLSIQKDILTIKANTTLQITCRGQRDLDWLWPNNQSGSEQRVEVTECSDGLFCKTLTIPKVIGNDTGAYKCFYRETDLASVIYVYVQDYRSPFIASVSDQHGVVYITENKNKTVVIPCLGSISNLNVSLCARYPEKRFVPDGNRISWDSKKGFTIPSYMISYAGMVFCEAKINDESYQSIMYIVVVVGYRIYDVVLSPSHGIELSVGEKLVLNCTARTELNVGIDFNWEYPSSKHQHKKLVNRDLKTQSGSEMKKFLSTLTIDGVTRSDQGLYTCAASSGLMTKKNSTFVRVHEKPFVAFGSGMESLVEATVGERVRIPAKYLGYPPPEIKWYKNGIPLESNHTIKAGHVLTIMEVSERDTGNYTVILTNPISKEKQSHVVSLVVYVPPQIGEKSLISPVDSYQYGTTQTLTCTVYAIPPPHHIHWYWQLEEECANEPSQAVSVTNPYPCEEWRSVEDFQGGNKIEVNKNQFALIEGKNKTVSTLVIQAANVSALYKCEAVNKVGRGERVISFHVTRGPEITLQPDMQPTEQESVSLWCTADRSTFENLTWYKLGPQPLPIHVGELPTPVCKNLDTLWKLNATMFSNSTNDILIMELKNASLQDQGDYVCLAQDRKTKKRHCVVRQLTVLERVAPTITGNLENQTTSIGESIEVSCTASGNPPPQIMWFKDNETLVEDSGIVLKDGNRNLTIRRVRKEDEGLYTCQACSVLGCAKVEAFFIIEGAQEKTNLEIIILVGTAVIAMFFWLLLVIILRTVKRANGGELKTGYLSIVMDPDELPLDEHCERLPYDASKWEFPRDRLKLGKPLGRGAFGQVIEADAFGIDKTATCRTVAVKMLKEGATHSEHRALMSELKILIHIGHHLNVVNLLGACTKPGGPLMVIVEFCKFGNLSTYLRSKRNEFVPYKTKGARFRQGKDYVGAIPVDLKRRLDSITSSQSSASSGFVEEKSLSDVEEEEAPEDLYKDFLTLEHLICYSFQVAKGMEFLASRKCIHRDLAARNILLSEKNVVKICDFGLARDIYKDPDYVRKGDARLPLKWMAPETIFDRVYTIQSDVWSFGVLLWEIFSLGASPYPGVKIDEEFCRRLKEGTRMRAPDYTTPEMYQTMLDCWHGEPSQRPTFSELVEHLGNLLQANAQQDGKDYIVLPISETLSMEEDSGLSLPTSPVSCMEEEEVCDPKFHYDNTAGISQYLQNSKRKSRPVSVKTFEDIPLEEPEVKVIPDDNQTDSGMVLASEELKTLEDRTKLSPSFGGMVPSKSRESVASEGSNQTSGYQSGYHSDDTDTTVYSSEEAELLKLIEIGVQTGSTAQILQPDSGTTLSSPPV

Row | Structure (SMILES) | IC50
1 | Cc1ncc(NC(=O)CN2CC(C)(C)C2)cc1NC(=O)c1cnn2cc(-c3cnn4c3CCC4)sc12 [Example 409, 2-(5,6-dihydro-4H-pyrrolo[1,2-b]pyrazol-3-yl)-N-(5-(2-(3,3-dimethylazetidin-1-yl)acetamido)-2-methylpyridin-3-yl)pyrazolo[5,1-b]thiazole-7-carboxamide] | 3.37 µM
2 | Cc1ncc(NC(=O)CN2CC(C)(C)C2)cc1NC(=O)c1cnn2cc(-c3ccnnc3C)sc12 [Example 410, N-(5-(2-(3,3-dimethylazetidin-1-yl)acetamido)-2-methylpyridin-3-yl)-2-(3-methylpyridazin-4-yl)pyrazolo[5,1-b]thiazole-7-carboxamide] | > 7.5 µM
3 | Cc1ncc(NC(=O)CN2CC3(COC3)C2)cc1NC(=O)c1cnn2cc(-c3cnn4c3OCCC4)sc12 [Example 411, N-(5-(2-(2-oxa-6-azaspiro[3.3]heptan-6-yl)acetamido)-2-methylpyridin-3-yl)-2-(6,7-dihydro-5H-pyrazolo[5,1-b][1,3]oxazin-3-yl)pyrazolo[5,1-b]thiazole-7-carboxamide] | > 7.5 µM
4 | Cc1ncc(NC(=O)CN2CCC2)cc1NC(=O)c1cnn2cc(-c3cnn4c3OCCC4)sc12 [Example 412, N-(5-(2-(azetidin-1-yl)acetamido)-2-methylpyridin-3-yl)-2-(6,7-dihydro-5H-pyrazolo[5,1-b][1,3]oxazin-3-yl)pyrazolo[5,1-b]thiazole-7-carboxamide] | > 7.5 µM
5 | Cc1ncc(NC(=O)CN2CCC[C@@H]2C)cc1NC(=O)c1cnn2cc(-c3cnn4c3OCCC4)sc12 [Example 413, (S)-2-(6,7-dihydro-5H-pyrazolo[5,1-b][1,3]oxazin-3-yl)-N-(2-methyl-5-(2-(2-methylpyrrolidin-1-yl)acetamido)pyridin-3-yl)pyrazolo[5,1-b]thiazole-7-carboxamide] | > 7.5 µM
6 | Cc1ncc(NC(=O)CNCC(C)C)cc1NC(=O)c1cnn2cc(-c3cnn4c3OCCC4)sc12 [Example 414, 2-(6,7-dihydro-5H-pyrazolo[5,1-b][1,3]oxazin-3-yl)-N-(5-(2-(isobutylamino)acetamido)-2-methylpyridin-3-yl)pyrazolo[5,1-b]thiazole-7-carboxamide] | 5.1 µM
7 | Cc1ncc(NC(=O)CN2CC(C)(C)C2)cc1NC(=O)c1cnn2cc(-c3cnc4n3CCOC4)sc12 [Example 415, 2-(5,6-dihydro-8H-imidazo[2,1-c][1,4]oxazin-3-yl)-N-(5-(2-(3,3-dimethylazetidin-1-yl)acetamido)-2-methylpyridin-3-yl)pyrazolo[5,1-b]thiazole-7-carboxamide] | > 7.5 µM
8 | Cc1ncc(NC(=O)CN2CCC[C@@H]2C)cc1NC(=O)c1cnn2cc(-c3cnn4c3CCC4)sc12 [Example 416, (S)-2-(5,6-dihydro-4H-pyrrolo[1,2-b]pyrazol-3-yl)-N-(2-methyl-5-(2-(2-methylpyrrolidin-1-yl)acetamido)pyridin-3-yl)pyrazolo[5,1-b]thiazole-7-carboxamide] | > 7.5 µM
9 | Cc1ncc(NC(=O)CN2CCCC23CCC3)cc1NC(=O)c1cnn2cc(-c3cnn4c3COCC4)sc12 [Example 417, N-(5-(2-(5-azaspiro[3.4]octan-5-yl)acetamido)-2-methylpyridin-3-yl)-2-(6,7-dihydro-4H-pyrazolo[5,1-c][1,4]oxazin-3-yl)pyrazolo[5,1-b]thiazole-7-carboxamide] | > 7.5 µM
10 | Cc1ncc(NC(=O)CN2CCCC23CCC3)cc1NC(=O)c1cnn2cc(-c3cnc4n3CCOC4)sc12 [Example 418, N-(5-(2-(5-azaspiro[3.4]octan-5-yl)acetamido)-2-methylpyridin-3-yl)-2-(5,6-dihydro-8H-imidazo[2,1-c][1,4]oxazin-3-yl)pyrazolo[5,1-b]thiazole-7-carboxamide] | > 7.5 µM
11 | Cc1ncc(NC(=O)CN2CCCCC2)cc1NC(=O)c1cnn2cc(-c3cnn4c3OCCC4)sc12 [Example 419, 2-(6,7-dihydro-5H-pyrazolo[5,1-b][1,3]oxazin-3-yl)-N-(2-methyl-5-(2-(piperidin-1-yl)acetamido)pyridin-3-yl)pyrazolo[5,1-b]thiazole-7-carboxamide] | > 7.5 µM
12 | Cc1ncc(NC(=O)CN2CCCCCC2)cc1NC(=O)c1cnn2cc(-c3cnn4c3OCCC4)sc12 [Example 420, N-(5-(2-(azepan-1-yl)acetamido)-2-methylpyridin-3-yl)-2-(6,7-dihydro-5H-pyrazolo[5,1-b][1,3]oxazin-3-yl)pyrazolo[5,1-b]thiazole-7-carboxamide] | > 7.5 µM
13 | Cc1ncc(NC(=O)CNC2CCCC2)cc1NC(=O)c1cnn2cc(-c3cnn4c3OCCC4)sc12 [Example 421, N-(5-(2-(cyclopentylamino)acetamido)-2-methylpyridin-3-yl)-2-(6,7-dihydro-5H-pyrazolo[5,1-b][1,3]oxazin-3-yl)pyrazolo[5,1-b]thiazole-7-carboxamide] | > 7.5 µM
14 | Cc1ncc(NC(=O)CNC2CCCC2)cc1NC(=O)c1cnn2cc(-c3cnn4c3CCC4)sc12 [Example 422, N-(5-(2-(cyclopentylamino)acetamido)-2-methylpyridin-3-yl)-2-(5,6-dihydro-4H-pyrrolo[1,2-b]pyrazol-3-yl)pyrazolo[5,1-b]thiazole-7-carboxamide] | > 7.5 µM
15 | Cc1ncc(NC(=O)CN2CC3(CCCCO3)C2)cc1NC(=O)c1cnn2cc(-c3cnn4c3OCCC4)sc12 [Example 423, N-(5-(2-(5-oxa-2-azaspiro[3.5]nonan-2-yl)acetamido)-2-methylpyridin-3-yl)-2-(6,7-dihydro-5H-pyrazolo[5,1-b][1,3]oxazin-3-yl)pyrazolo[5,1-b]thiazole-7-carboxamide] | > 7.5 µM
16 | Cc1ncc(NC(=O)CN2CC3(CCCCO3)C2)cc1NC(=O)c1cnn2cc(-c3cnn4c3CCC4)sc12 [Example 424, N-(5-(2-(5-oxa-2-azaspiro[3.5]nonan-2-yl)acetamido)-2-methylpyridin-3-yl)-2-(5,6-dihydro-4H-pyrrolo[1,2-b]pyrazol-3-yl)pyrazolo[5,1-b]thiazole-7-carboxamide] | > 7.5 µM
17 | Cc1ncc(NC(=O)CN2CC(C)(C)C2)cc1NC(=O)c1cnn2cc(-c3c(C)nn(C4COC4)c3C)sc12 [Example 425, 2-(3,5-dimethyl-1-(oxetan-3-yl)-1H-pyrazol-4-yl)-N-(5-(2-(3,3-dimethylazetidin-1-yl)acetamido)-2-methylpyridin-3-yl)pyrazolo[5,1-b]thiazole-7-carboxamide] | > 7.5 µM
18 | Cc1ncc(NC(=O)CC2CNC2)cc1NC(=O)c1cnn2cc(-c3cnn4c3CCC4)sc12 [Example 426, N-(5-(2-(azetidin-3-yl)acetamido)-2-methylpyridin-3-yl)-2-(5,6-dihydro-4H-pyrrolo[1,2-b]pyrazol-3-yl)pyrazolo[5,1-b]thiazole-7-carboxamide] | > 7.5 µM
19 | Cc1ncc(NC(=O)CC2CN(C)C2)cc1NC(=O)c1cnn2cc(-c3cnn4c3CCC4)sc12 [Example 427, 2-(5,6-dihydro-4H-pyrrolo[1,2-b]pyrazol-3-yl)-N-(2-methyl-5-(2-(1-methylazetidin-3-yl)acetamido)pyridin-3-yl)pyrazolo[5,1-b]thiazole-7-carboxamide] | > 7.5 µM
20 | Cc1ncc(NC(=O)CN2CC(C)(C)C2)cc1NC(=O)c1cnn2cc(-c3cnn(C(F)F)c3)sc12 [Example 428, 2-(1-(difluoromethyl)-1H-pyrazol-4-yl)-N-(5-(2-(3,3-dimethylazetidin-1-yl)acetamido)-2-methylpyridin-3-yl)pyrazolo[5,1-b]thiazole-7-carboxamide] | > 7.5 µM
21 | Cc1ncc(NC(=O)CN2CC(C)(C)C2)cc1NC(=O)c1cnn2cc(-c3cncnc3)sc12 [Example 429, N-(5-(2-(3,3-dimethylazetidin-1-yl)acetamido)-2-methylpyridin-3-yl)-2-(pyrimidin-5-yl)pyrazolo[5,1-b]thiazole-7-carboxamide] | > 7.5 µM
22 | Cc1ncc(NC(=O)CN2CC(C)(C)C2)cc1NC(=O)c1cnn2cc(-c3cn(C)nc3C)sc12 [Example 430, 2-(1,3-Dimethyl-1H-pyrazol-4-yl)-N-(5-(2-(3,3-dimethylazetidin-1-yl)acetamido)-2-methylpyridin-3-yl)pyrazolo[5,1-b]thiazole-7-carboxamide] | 5.17 µM
23 | Cc1ncc(NC(=O)CN2C[C@@H](C)O[C@H](C)C2)cc1NC(=O)c1cnn2cc(-c3cn(C)nc3C)sc12 [Example 431] | > 7.5 µM
24 | Cc1ncc(NC(=O)CN2CC(C)(C)C2)cc1NC(=O)c1cnn2cc(-c3cnn(C)c3C)sc12 [Example 434, 2-(1,5-Dimethyl-1H-pyrazol-4-yl)-N-(5-(2-(3,3-dimethylazetidin-1-yl)acetamido)-2-methylpyridin-3-yl)pyrazolo[5,1-b]thiazole-7-carboxamide] | 5.22 µM
25 | Cc1ncc(NC(=O)CN2CC(C)(C)C2)cc1NC(=O)c1cnn2cc(-c3cnn(CCS(C)(=O)=O)c3)sc12 [Example 435, N-(5-(2-(3,3-Dimethylazetidin-1-yl)acetamido)-2-methylpyridin-3-yl)-2-(1-(2-(methylsulfonyl)ethyl)-1H-pyrazol-4-yl)pyrazolo[5,1-b]thiazole-7-carboxamide] | > 7.5 µM
26 | CCOc1ncccc1-c1cn2ncc(C(=O)Nc3cc(NC(=O)CN4CC(C)(C)C4)cnc3C)c2s1 [Example 436, N-(5-(2-(3,3-Dimethylazetidin-1-yl)acetamido)-2-methylpyridin-3-yl)-2-(2-ethoxypyridin-3-yl)pyrazolo[5,1-b]thiazole-7-carboxamide] | 4.3 µM
27 | Cc1ncc(NC(=O)CN2CC(C)(C)C2)cc1NC(=O)c1cnn2cc(-c3cccnc3OC(F)(F)F)sc12 [Example 437, N-(5-(2-(3,3-dimethylazetidin-1-yl)acetamido)-2-methylpyridin-3-yl)-2-(2-(trifluoromethoxy)pyridin-3-yl)pyrazolo[5,1-b]thiazole-7-carboxamide] | > 7.5 µM
28 | COC1CN(CC(=O)Nc2cnc(C)c(NC(=O)c3cnn4cc(-c5cn(C)nc5C)sc34)c2)C1 [Example 441, 2-(1,3-Dimethyl-1H-pyrazol-4-yl)-N-(5-(2-(3-methoxyazetidin-1-yl)acetamido)-2-methylpyridin-3-yl)pyrazolo[5,1-b]thiazole-7-carboxamide] | > 7.5 µM
29 | COC1(C)CN(CC(=O)Nc2cnc(C)c(NC(=O)c3cnn4cc(-c5cn(C)nc5C)sc34)c2)C1 [Example 442, 2-(1,3-Dimethyl-1H-pyrazol-4-yl)-N-(5-(2-(3-methoxy-3-methylazetidin-1-yl)acetamido)-2-methylpyridin-3-yl)pyrazolo[5,1-b]thiazole-7-carboxamide] | > 7.5 µM
